Results reported in patent publication US12336981B2, “Compounds and compositions for the inhibition of NAMPT” (Valo Health, Inc., priority 2010, dated 2025).
Where two headings read alike, the source gives them in different places.

Columns and labels:
NAMPT = target: T1, NAMPT (Homo sapiens, UniProt P43490); test: Biochemical inhibition assay: NAMPT enzymatic reaction, NMN quantified by mass spectrometry
T1 construct: His tag; host or cells: E. coli
In short: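 Inhibition of E. coli-expressed His-tagged human NAMPT, measured as NMN formation by mass spectrometry after a 30 min room-temperature reaction containing 1 μM NAM, 100 μM PRPP and 2.5 mM ATP.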

A2780 cells = test: In-vitro cell proliferation assay (SRB), A2780 cells; format: cell-based; settings: Homo sapiens, A2780, 72 h, A2780 cells, 72 hours, read-out: A2780 IC50
In short: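 SRB read-out: 6% TCA fix 1 h at 4° C., stain, Tris solubilize, A570. Media-only background subtracted; % inhibition from two compound concentrations.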

[1] = NAMPT enzymatic reaction, read-out: Biochem IC50
[2] = NAMPT enzymatic assay, read-out: Biochem IC50

T1 sequence (P43490 whole entry): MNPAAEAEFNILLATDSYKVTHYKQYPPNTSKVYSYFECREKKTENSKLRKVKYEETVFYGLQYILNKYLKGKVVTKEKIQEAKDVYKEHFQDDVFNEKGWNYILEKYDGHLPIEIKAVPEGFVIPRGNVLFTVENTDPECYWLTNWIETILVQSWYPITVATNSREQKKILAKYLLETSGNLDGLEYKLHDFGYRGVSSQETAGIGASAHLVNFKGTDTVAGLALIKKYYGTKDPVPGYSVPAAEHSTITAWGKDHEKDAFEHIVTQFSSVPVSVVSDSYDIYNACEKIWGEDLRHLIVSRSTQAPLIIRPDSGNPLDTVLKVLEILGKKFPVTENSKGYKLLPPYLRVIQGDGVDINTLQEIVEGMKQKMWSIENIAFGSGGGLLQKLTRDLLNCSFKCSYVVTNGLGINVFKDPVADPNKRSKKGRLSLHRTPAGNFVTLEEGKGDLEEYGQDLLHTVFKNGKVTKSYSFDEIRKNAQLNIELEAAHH

Structure (SMILES)	IC50 (NAMPT; [1]) [µM]	IC50 (A2780 cells; SRB assay) [nM]	IC50 (NAMPT; [2]) [µM]	IC50 (A2780 cells; SRB) [nM]	IC50 (NAMPT; Biochem IC50 uM) [µM]
O=C(NCc1ccc(S(=O)(=O)N2CCCCC2)cc1)c1ccc2cnccc2n1 [N-{[4-(piperidine-1-sulfonyl)phenyl]methyl}-1,6-naphthyridine-2-carboxamide]	0.012	10	–	–	–
CC(C)c1ccc(S(=O)(=O)c2ccc(CNC(=O)c3cnc4nccn4c3)cc2)cc1	–	–	0.0017	8.1	–
O=C(NCc1ccc(S(=O)(=O)CCCc2ccccc2)cc1)c1cc2cnccc2[nH]1 [N-({4-[(3-phenylpropane)sulfonyl]phenyl}methyl)-1H-pyrrolo[3,2-c]pyridine-2-carboxamide]	0.014	–	–	78	–
O=C(NCc1ccc(S(=O)(=O)c2ccccc2)cc1)c1cn2ccncc2n1 [N-{[4-(benzenesulfonyl)phenyl]methyl}imidazo[1,2-a]pyrazine-2-carboxamide]	1.49	> 30000	–	–	–
CC(C)COc1cc(F)cc(S(=O)(=O)c2ccc(CNC(=O)c3cc4ccncc4o3)cc2)c1 [N-[(4-{[3-fluoro-5-(2-methylpropoxy)benzene]sulfonyl}phenyl)methyl]furo[2,3-c]pyridine-2-carboxamide]	–	–	0.0103	12.9	–
COc1c(C(F)(F)F)cccc1S(=O)(=O)c1ccc(CNC(=O)c2ccc3nccn3c2)cc1	–	–	0.0219	14.8	–
O=C(NCc1ccc(S(=O)(=O)c2ccc(N3CCOCC3)nc2)cc1)c1cc2ccncc2s1 [N-({4-[6-(morpholin-4-yl)pyridine-3-sulfonyl]phenyl}methyl)thieno[2,3-c]pyridine-2-carboxamide]	–	–	–	0.7	0.0041
O=C(NCc1ccc(S(=O)(=O)c2ccc(-n3cccn3)cc2F)cc1)c1ccc2nccn2c1 [N-[(4-{[2-fluoro-4-(1H-pyrazol-1-yl)benzene]sulfonyl}phenyl)methyl]imidazo[1,2-a]pyridine-6-carboxamide]	–	–	0.00844	12.8	–
COc1ccc(S(=O)(=O)c2ccc(CNC(=O)c3cc4ccncc4s3)cc2)c(C(F)(F)F)c1	–	–	0.0217	13	–
COc1cc(S(=O)(=O)c2ccc(CNC(=O)c3cc4ccncc4o3)cc2)ccc1F	0.0078	–	–	7	–
COc1ccc(S(=O)(=O)c2ccc(CNC(=O)c3ccc4nccn4c3)cc2)cc1 [N-({4-[(4-methoxybenzene)sulfonyl]phenyl}methyl)imidazo[1,2-a]pyridine-6-carboxamide]	0.00974	–	–	8.66	–
O=C(NCc1ccc(S(=O)(=O)c2ccc(-n3cccn3)cc2)cc1)c1cnc2[nH]ncc2c1	–	–	0.0123	7.5	–
COc1ccc(S(=O)(=O)c2ccc(CNC(=O)c3cc4cnccc4[nH]3)cc2)cc1F [N-({4-[(3-fluoro-4-methoxybenzene)sulfonyl]phenyl}methyl)-1H-pyrrolo[3,2-c]pyridine-2-carboxamide]	0.005	4	–	–	–
COc1cc(F)cc(S(=O)(=O)c2ccc(CNC(=O)c3cnc4[nH]ncc4c3)cc2)c1	0.0044	–	–	6.3	–
O=C(NCc1ccc(S(=O)(=O)c2ccc(N3CCOCC3)cc2)cc1)c1ccc2nccn2c1	–	–	0.0035	0.9	–
COc1ccc(S(=O)(=O)c2ccc(CNC(=O)c3cc4cnccc4[nH]3)cc2)cc1 [N-({4-[(4-methoxybenzene)sulfonyl]phenyl}methyl)-1H-pyrrolo[3,2-c]pyridine-2-carboxamide]	0.011	9	–	–	–
O=C(NCc1ccc(S(=O)(=O)c2cccc(F)c2)cc1)c1cnc2nccn2c1	0.0019	–	–	22.1	–
CCCS(=O)(=O)Nc1cccc(S(=O)(=O)c2ccc(CNC(=O)c3cnc4nccn4c3)cc2)c1	–	–	0.0023	86.2	–
CCOc1ccc(S(=O)(=O)c2ccc(CNC(=O)c3ccc4nccn4c3)cc2)cc1	0.0045	–	–	2.9	–
CCCOc1cccc(S(=O)(=O)c2ccc(CNC(=O)c3cnc4[nH]ncc4c3)cc2)c1 [N-({4-[(3-propoxybenzene)sulfonyl]phenyl}methyl)-1H-pyrazolo[3,4-b]pyridine-5-carboxamide]	0.0304	–	–	41	–
O=C(NCc1ccc(S(=O)(=O)c2ccc(C(F)(F)F)c(Cl)c2)cc1)c1cc2ccncc2s1	–	–	0.003	2.3	–
O=C(NCc1ccc(S(=O)(=O)c2ccc(-c3ccccc3)cc2)cc1)c1cc2ccncc2s1	0.003	–	–	10.6	–
COc1c(C(F)(F)F)cccc1S(=O)(=O)c1ccc(CNC(=O)c2cc3ccncc3s2)cc1	–	–	0.0094	12.8	–
O=C(NCc1ccc(S(=O)(=O)c2cccc(N3CCCC3)c2)cc1)c1cnc2nccn2c1	–	–	0.0025	4.1	–
COc1cc(S(=O)(=O)c2ccc(CNC(=O)c3cnc4nccn4c3)cc2)ccc1F	0.0049	–	–	10.8	–
O=C(NCc1ccc(S(=O)(=O)c2cccc(N3CCCC3)c2)cc1)c1ccc2nccn2c1	–	–	0.0136	1.6	–

Structure (SMILES)	IC50 (NAMPT; [1]) [µM]	IC50 (A2780 cells; SRB assay) [nM]	IC50 (NAMPT; [2]) [µM]	IC50 (A2780 cells; SRB) [nM]	IC50 (NAMPT; Biochem IC50 uM) [µM]
COc1cccc(Cl)c1S(=O)(=O)c1ccc(CNC(=O)c2ccc3nccn3c2)cc1 [N-({4-[(2-chloro-6-methoxybenzene)sulfonyl]phenyl}methyl)imidazo[1,2-a]pyridine-6-carboxamide]	0.0202	–	–	25.8	–
Cc1ccc(S(=O)(=O)c2ccc(CNC(=O)c3cc4ccncc4o3)cc2)cc1F	0.014	–	–	3.3	–
O=C(NCc1ccc(S(=O)(=O)c2cccc(OC(F)F)c2)cc1)c1cc2ccncc2o1	–	–	0.0028	3	–
O=C(NCc1ccc(S(=O)(=O)c2cccc(Cl)c2)cc1)c1ccc2nccn2c1 [N-({4-[(3-chlorobenzene)sulfonyl]phenyl}methyl)imidazo[1,2-a]pyridine-6-carboxamide]	0.00908	–	–	3.07	–
Cc1ccncc1S(=O)(=O)c1ccc(CNC(=O)c2ccc3nccn3c2)cc1 [N-{[4-(4-methylpyridine-3-sulfonyl)phenyl]methyl}imidazo[1,2-a]pyridine-6-carboxamide]	–	–	0.0665	65.8	–
Cn1cc2ccc(S(=O)(=O)c3ccc(CNC(=O)c4cc5ccncc5o4)cc3)cc2n1 [N-{[4-(2-methyl-2H-indazole-6-sulfonyl)phenyl]methyl}furo[2,3-c]pyridine-2-carboxamide]	–	–	0.0034	2.8	–
O=C(NCc1ccc(S(=O)(=O)c2ccc(C(F)(F)F)cn2)cc1)c1cnc2[nH]ncc2c1 [N-({4-[5-(trifluoromethyl)pyridine-2-sulfonyl]phenyl}methyl)-1H-pyrazolo[3,4-b]pyridine-5-carboxamide]	–	–	0.1 to 1	100 to 1000	–
CN(C)C(=O)c1ccccc1S(=O)(=O)c1ccc(CNC(=O)c2cc3cnccc3[nH]2)cc1 [N-[(4-{[2-(dimethylcarbamoyl)benzene]sulfonyl}phenyl)methyl]-1H-pyrrolo[3,2-c]pyridine-2-carboxamide]	0.951	484	0.1 to 1	100 to 1000	–
COc1ccc2cc(S(=O)(=O)c3ccc(CNC(=O)c4cc5ccncc5o4)cc3)ccc2c1 [N-{[4-(6-methoxynaphthalene-2-sulfonyl)phenyl]methyl}furo[2,3-c]pyridine-2-carboxamide]	–	–	0.003	3.6	–
CN(C)Cc1cccc(S(=O)(=O)c2ccc(CNC(=O)c3cnc4nccn4c3)cc2)c1	–	–	0.0044	66	–
Cc1cc(C)c(S(=O)(=O)c2ccc(CNC(=O)c3cnc4nccn4c3)cc2)c(C)c1	0.0288	–	–	100 to 1000	–
COc1c(F)cccc1S(=O)(=O)c1ccc(CNC(=O)c2cnc3nccn3c2)cc1	0.0289	–	–	100 to 1000	–
COc1cc(C)cc(S(=O)(=O)c2ccc(CNC(=O)c3cnc4[nH]ncc4c3)cc2)c1OC	0.146	–	–	58.6	–
O=C(NCc1ccc(S(=O)(=O)c2ccc(C(F)(F)F)cc2)cc1)c1cnc2nccn2c1	–	–	0.006	23.5	–
O=C(NCc1ccc(S(=O)(=O)c2csc(-c3cccc(F)c3)n2)cc1)c1cc2ccncc2s1 [N-({4-[2-(3-fluorophenyl)-1,3-thiazole-4-sulfonyl]phenyl}methyl)thieno[2,3-c]pyridine-2-carboxamide]	–	–	0.0066	24.4	–
NS(=O)(=O)c1cccc(S(=O)(=O)c2ccc(CNC(=O)c3cc4ccncc4s3)cc2)c1	0.002	–	–	12.1	–
COc1cc(S(=O)(=O)c2ccc(CNC(=O)c3cc4ccncc4s3)cc2)ccc1Cl	0.0026	–	–	2.3	–
N#CC1(c2ccc(S(=O)(=O)c3ccc(CNC(=O)c4ccc5nccn5c4)cc3)cc2)CCCC1	–	–	0.0107	3	–
CN(C)CCc1ccc(S(=O)(=O)c2ccc(CNC(=O)c3ccc4nccn4c3)cc2)cc1	–	–	0.0021	0.8	–
O=C(NCc1ccc(S(=O)(=O)c2ccc(Cl)cc2C(F)(F)F)cc1)c1cnc2[nH]ncc2c1 [N-[(4-{[4-chloro-2-(trifluoromethyl)benzene]sulfonyl}phenyl)methyl]-1H-pyrazolo[3,4-b]pyridine-5-carboxamide]	–	–	0.147	78.3	–
O=C(NCc1ccc(S(=O)(=O)c2cccc3c2Oc2ccccc2S3)cc1)c1cnc2nccn2c1 [N-{[4-(phenoxathiine-4-sulfonyl)phenyl]methyl}imidazo[1,2-a]pyrimidine-6-carboxamide]	–	–	0.0021	4.2	–
Cc1cccc(S(=O)(=O)c2ccc(CNC(=O)c3cc4ccncc4s3)cc2)c1F	0.0107	–	–	3.3	–
CCCOc1ccc(S(=O)(=O)c2ccc(CNC(=O)c3cc4ccncc4o3)cc2)c(C)c1	0.0225	–	–	59.6	–
CCOc1cccc(S(=O)(=O)c2ccc(CNC(=O)c3ccc4nccn4c3)cc2)c1F	0.005	–	–	6.2	–
O=C(NCc1ccc(S(=O)(=O)c2cccc(-c3ccccc3)c2)cc1)c1ccc2nccn2c1	0.0122	–	–	6.8	–
